Data: a melting point compilation (Tetko et al.; mined from patent text by program, amines drawn as free bases though some values may be those of a salt)

Row | Compound | melting point
1 | O=c1oc(-c2ccccc2Cl)cc(O)c1SCc1ccccc1 | 99 to 101 °C
2 | CNC1CN(c2c(F)c(N)c3c(=O)c(C(=O)O)cn(-c4nc(N)c(F)cc4F)c3c2Cl)C1 | 204 to 213 °C
3 | CCCCCCCCCCCCCCCCCCNC(=O)OCC(CN(C(C)=O)S(=O)(=O)CCCI)NC(C)=O (configuration not stated) | 118 to 119 °C
4 | CCCC1=C(C(=O)OCC)C(c2cccc3nonc23)c2c[nH]nc2N1 (configuration not stated) | 207 °C
5 | COC(=O)c1cc(NC(=O)Nc2ccc([N+](=O)[O-])cc2)cc(C(=O)OC)c1 | 193 to 195 °C
6 | CC(=O)NC(=S)NCCC1CC2c3cccc4[nH]cc(c34)CC2N(C)C1 (configuration not stated) | 213 to 215 °C
7 | NC(=O)CC(O)(Cn1cncn1)c1ccc(Cl)cc1Cl (configuration not stated) | 144 to 145 °C
8 | CC(=O)N(CCN1CCNC1=C(C#N)C#N)Cc1ccc(CN2CCCCC2)o1 | 166 to 167 °C
9 | COC(=O)CCc1cnc(C)s1 | 115 °C
10 | C=C1SC(=S)N(c2ccc3cc(-c4ccc(OC)c(C(C)(C)C)c4)ccc3c2)C1=O | 281 to 284 °C
11 | COc1nc(Cn2cncn2)cnc1NS(=O)(=O)c1cccc(Cl)c1Cl | 95 to 105 °C
12 | Fc1cccc2c(CCCc3ccc(Cl)cc3)ccnc12 | 97 °C
13 | Cc1c(C(=O)O)ccc(=O)n1-c1ccc(Cl)cc1 | 271 to 273 °C
14 | O=C(O)CC(CC(=O)Nc1cc(OCC=C(Cl)Cl)c(Cl)cc1F)C(F)(F)F (configuration not stated) | 117 to 118 °C
15 | O=C(Nc1ccc(F)c(NS(=O)(=O)c2cccs2)c1)c1ccc(F)c(F)c1 | 202 to 203 °C
16 | C=C(C)C(=O)OC1=CC(C(=O)O)C(O)(C(C)=O)C=C1 (configuration not stated) | 150 °C
17 | NCCNc1cc(NCCO)c([N+](=O)[O-])c(NCCO)c1 | 220 °C
18 | CC(=O)Nc1ccc(CO)cc1[N+](=O)[O-] | 114 to 115 °C
19 | Cc1ccccc1-c1cn2c(n1)-c1ccccc1Nc1ncccc1-2 | 215 to 217 °C
20 | CC(C)(C)c1cccc(S(=O)(=O)n2c(C(=O)c3ccc(C(=O)O)s3)cc3cc(C(F)(F)F)ccc32)c1 | 217 °C
21 | Cc1cc(C)cc(C#N)c1 | 51 to 52 °C
22 | Cc1ccsc1C(O)CCN(C)C (configuration not stated) | 41.5 to 42.5 °C
23 | O=C(Nc1cccnc1)N1CCN(c2nccc(-c3ccc(F)cc3F)n2)CC1 | 206 to 207 °C
24 | CCOC(=O)c1cn(-c2ccccn2)nc1C | 79 to 80 °C
25 | CC(C)(C)OC(=O)N1CCc2cc(OCc3ccccc3)c(OCc3ccccc3)cc2C1Cc1ccc(N)c(I)c1 (configuration not stated) | 169 to 171 °C

Row | Compound | melting point
26 | CC(C)C1=C(Sc2ccccc2)C(c2ccc(F)cc2)=C(C(C)O)C(C(C)C)N1C (configuration not stated) | 125 to 128 °C
27 | CCCCc1oc2ccccc2c1-c1ncc(-c2ccc3c(Br)c(OCc4nnn[nH]4)ccc3c2)o1 | 235 to 237 °C
28 | C[C@](O)(COc1ccc(Cl)c(F)c1)C(=O)Nc1ccc(C#N)c(C(F)(F)F)c1 | 132 to 134 °C
29 | Cc1nc(-c2ccc(C(F)(F)F)cc2)sc1CSc1ccc2c(c1)CC(C(=O)O)CO2 (configuration not stated) | 139 to 140 °C
30 | CCC(=O)N(N(CCCl)S(C)(=O)=O)S(C)(=O)=O | 97 to 98 °C
31 | O=C(NC1CCN(CCc2ccccc2)CC1)c1ccccc1 | 164 to 167 °C
32 | CCc1cc(-c2nc(C)c(-c3ccnc(Nc4ccc(CNC(C)=O)cc4)n3)s2)ccn1 | 224 to 225 °C
33 | CC(C)(CO)Nc1cc(Cl)ccc1[N+](=O)[O-] | 102 to 104 °C
34 | CC(=O)OC1OCC[C@@H]1NC(=O)[C@H](Cc1ccccc1)NC(=O)OC(C)(C)C (some centres not stated) | 156 to 157 °C
35 | C=CCNC(=O)c1ccccc1I | 105 to 106 °C
36 | Cc1ccc(COc2ccc(C=NCc3ccco3)cc2)cc1 | 71 °C
37 | O=C(Cc1ccc2c(c1)Cc1c-2[nH]c(=O)c2nccn12)NCc1ccccc1 | > 260 °C
38 | CC(C)(CCCCCC(O)CCCCCC(C)(C)CC(=O)c1cccnc1)COC(=O)c1cccnc1 (configuration not stated) | 65 to 67 °C
39 | O=C(O)CCCC=C(c1cccnc1)c1cccc(NC(=S)Nc2ccc(Cl)cc2Cl)c1 | 154 to 155 °C
40 | CCOC(=O)c1ccc(CBr)cc1OC | 70 to 71 °C
41 | CC(=O)NCC1CN(c2ncccc2Cl)C1 | 109 to 111 °C
42 | CCCCCCCCCCCCCCCCOCC(CO)OCOC(c1ccccc1)(c1ccccc1)c1ccccc1 (configuration not stated) | 38 °C
43 | COC(=O)Cc1ccc(OCCNC(=O)C2Cc3ccccc3N2S(=O)(=O)c2ccc(-c3cc(C)ccc3C)cc2)cc1 (configuration not stated) | 56 to 59 °C
44 | COC(=O)c1ccc(OCCNC(=O)C2Cc3ccccc3N2S(=O)(=O)c2ccc(-c3cc(C(F)(F)F)ccc3Cl)cc2)cc1C(F)(F)F (configuration not stated) | 79 °C
45 | CC(C)[C@H](NC(=O)[C@H](CC(=O)OC(C)(C)C)NC(=O)CCCN)C(=O)OC(C)(C)C | 99 to 100 °C
46 | COc1cc(NCCCC(C)N2C(=O)c3ccccc3C2=O)c2nc(C)cc(C)c2c1OC (configuration not stated) | 141 to 144 °C
47 | CCOC(=O)[C@H]1CCC(=O)[C@@H](n2nc(-c3c(-c4ccccc4)nn4ccccc34)ccc2=O)C1 (relative stereo) | 160 to 162 °C
48 | Cc1cccc(NC(=O)NC2N=C(C(C)C)c3cccc(C)c3N(CC(=O)C3CCCCC3)C2=O)c1 (configuration not stated) | 142 to 146 °C
49 | Cc1ccc(-c2ccc3c(c2)C=C(C(=O)Nc2ccc(CN4CCSCC4)cc2)CC3)cc1 | 178 to 180 °C
50 | CCOC(=O)c1c(Cn2cncn2)nc2cc(OC)c(O)cc2c1-c1ccc(O)c(O)c1 | 264 to 266 °C

Row | Compound | melting point
51 | FC(F)(F)c1ccn(-c2cc(-c3ccc4c(c3)OCO4)nc3ccccc23)n1 | 98 to 100 °C
52 | O=C(O)/C=C/c1cccc(OS(=O)(=O)C(F)(F)F)c1 | 107 °C
53 | COc1ccc2ccc(N3C(=O)C4=C(SCCO4)C3=O)nc2n1 | 255 °C
54 | CCCCCCCCC(SCCCCCC)C(=O)Nc1c(OC)ccc2ncccc12 (configuration not stated) | 88 to 89 °C
55 | CON=Cc1sc(-c2ccc(O)cc2C)c(C)c1-c1ccc(O)c(F)c1 | 172 to 177 °C
56 | CCn1cc(C)c(NS(=O)(=O)c2ccc(N)cc2)nc1=O | 176 to 178 °C
57 | CC(C)c1cn2ccccc2c1S(=O)(=O)c1ccc(OCCCN(C)C)cc1 | 90 to 92 °C
58 | NC(=O)c1nnn(Cc2cccc(Cl)c2Cl)c1N | 224 to 226 °C
59 | CCCCN(Cc1ccc(-c2ccccc2-c2nnnn2C(c2ccccc2)(c2ccccc2)c2ccccc2)cc1)c1nc(SC)ncc1C(=O)OCC | 122 to 124 °C
60 | c1ccc2c(c1)CNc1ccccc1C2 | 117 to 122 °C
61 | CCOC(=O)COc1ccc(NC(=O)c2sc(NC(=N)N)nc2C)cc1 | 223 °C
62 | C=CCn1nc(OCC(=O)c2cccs2)c(-c2ccc(F)cc2)c1-c1ccc(S(C)(=O)=O)cc1 | 146 to 148 °C
63 | N#CC1=C(Nc2ccc(F)cc2)CCCC1 | 79 to 82 °C
64 | N#Cc1c(NC2CCCCC2)cccc1-c1ccccc1 | 125 to 126 °C
65 | CCOC(=O)Cn1c(=S)c2ccccc2n(Cc2ccc(Cl)cc2Cl)c1=O | 138 to 139 °C
66 | NC(=NCC(F)(F)F)Nc1ccnc(OCCn2ccnc2)n1 | 149 to 150 °C
67 | NC(=O)N1C(=O)C(C(=O)c2cccs2)c2cnccc21 (configuration not stated) | 250 °C
68 | COC1CCC2C3CCC4CC(OC(=O)C(C)C)CCC4(C)C3CCC12C (configuration not stated) | 82 to 87 °C
69 | O=C1c2ccccc2-n2cnc(CO)c2[C@@H]2CCCN12 | 212 to 214 °C
70 | COCCOc1ccc(CCCNS(=O)(=O)c2cccc(Cl)c2)c(Oc2ncc(C(F)(F)F)cc2Cl)c1 | 110 to 114 °C
71 | Nc1c(N=Nc2ccc(Cl)cc2)ccc2c(S(N)(=O)=O)cccc12 | 258 °C
72 | COC(=O)c1ccc2c(c1)C(C(=O)O)c1ccccc1CO2 (configuration not stated) | 223 to 224 °C
73 | CN(CCO)C(=O)Nc1ccc2c(c1)C(c1ccccc1F)=NCC(=O)N2C | 196 to 198 °C
74 | Cc1ccc(Cn2ccc(OCc3ccccc3)c(Br)c2=O)cc1 | 150 to 151 °C
75 | CCCCCCN(C=CC=C(C#N)C#N)CCCCCC | 112 to 113 °C

Row | Compound | melting point
76 | CCN(CCCN1CCN(c2ccccc2OC)CC1)C1CCc2ncsc2C1 (configuration not stated) | 64 °C
77 | O=C(Cc1c2c(nn1-c1ccccc1)c(=O)[nH]c1ccccc12)N1CCN(Cc2ccccc2)CC1 | 283 to 285 °C
78 | CC(C)Cn1c(-c2ccccc2)nc2cnc3ccccc3c21 | 139 to 140 °C
79 | NCCNCC(O)COc1ccccc1C(N)=O (configuration not stated) | 91 to 93 °C
80 | CCC(C)CNc1nc2ccc(Sc3nnc4n3N=C(c3ccc(F)cc3)CC4)cc2s1 (configuration not stated) | 220 °C
81 | Oc1ccc2c(c1)CCCC(c1ccccc1)=C2c1ccc(OCCCCCCCl)cc1 | 193 °C
82 | O=C(Nc1ccc(N2CCN(Cc3ccccc3)CC2)cc1)c1ccccc1-c1ccc(C(F)(F)F)cc1 | 180 °C
83 | Cc1cccc(-c2nc(N)sc2-c2ccnc(-c3ccc(OC(F)(F)F)cc3)c2)n1 | 222 to 224 °C
84 | CCOC1=NS(=O)(=O)C(C#N)=C1OCC | 147 to 148 °C
85 | COc1ccc(S(=O)(=O)N(CCC(F)(F)F)c2ccccc2/C=C/c2ccncc2)cc1 | 124 to 126 °C
86 | CC(C)NC1=Nc2cccnc2SC1 | 135 to 139 °C
87 | C#CC(O)c1cccc2ccncc12 (configuration not stated) | 138 to 139 °C
88 | O=C(Nc1ccccc1)C1=C(N2CCCCC2)COC1=O | 157 to 158 °C
89 | O=C(OCc1ccccc1)c1cc(Br)c(OCc2ccccc2)cc1OCc1ccccc1 | 74 to 76 °C
90 | COc1cc2ncc(C#N)c(Nc3cccc(CSC(C)=O)c3)c2cc1OC | 172 to 177 °C
91 | CN1C=CNC1=C(C(=O)C(F)(F)F)C(=O)C(F)(F)F | 180 °C
92 | O=S(=O)(/C(=C\c1ccccc1)CO)c1ccccc1 | 67.5 to 69 °C
93 | CCCCCc1cc(OC)c(C2=C[C@H]3CC[C@]2(CO)C3(C)C)c(OC)c1 | 26 to 27 °C
94 | CCC(COC)Nc1nc(C)nc(Cl)c1N (configuration not stated) | 128 to 130 °C
95 | CCCCc1oc2ccccc2c1CCc1ccc(OS(=O)(=O)c2ccc(C(=O)O)c(OC(C)=O)c2)cc1 | 54 to 57 °C
96 | CC1(C)CC(N2CCN(Cc3ccccc3)C2=O)c2cc(C#N)ccc2O1 (configuration not stated) | 45 to 48 °C
97 | CCCC1CCC(CC(=O)N[C@@H](Cc2cc(F)cc(F)c2)[C@H](O)CNCc2cccc(CC)c2)CC1=O (some centres not stated) | 52 to 54 °C
